# Data reported in patent US20260285850A1, “SUBSTITUTED OXAZOLIDINONES AND IMIDAZOLINONES AS HERBICIDES” (FMC CORPORATION, priority 2023, published 2026).
# Experiments:
# Assay type in all cases: in vivo
# [1] = test system: sedge, umbrella (small-flower umbrella sedge, Cyperus difformis); assay: Test B flooded paddy test, visual plant response rating 0-100; conditions: 250 g ai/ha, Flood, applied to paddy water, evaluated after 13 days
# Procedure, shortened: (§1)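 Each species was raised to two leaves before flooding to a 3 cm depth and dosing the water with compound. Injury was assessed by eye after 13 days under greenhouse conditions.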
# [2] = test system: barnyardgrass (Echinochloa crusgalli); assay: as above; conditions: 250 g ai/ha, Flood, applied to paddy water, evaluated after 13 days
# Procedure, shortened: as §1
# [3] = test system: ducksalad (Heteranthera limosa); assay: as above; conditions: 250 g ai/ha, Flood, applied to paddy water, evaluated after 13 days
# Procedure, shortened: as §1
# rice (Oryza sativa) = assay: as above; conditions: 250 g ai/ha, Flood, applied to paddy water, evaluated after 13 days
# Procedure, shortened: as §1
# corn (Zea mays) [4] = assay: Test A preemergence soil spray, visual injury rating 0-100; conditions: 10 days, 0 = no effect, 100 = complete control
# Procedure, shortened: (§2)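 Greenhouse test: loam/sand pots received a surfactant-containing formulation, as a preemergence directed soil spray or a postemergence spray on young plants. Injury was judged visually at day 10 relative to untreated controls.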
# [5] = test system: blackgrass (Alopecurus myosuroides); assay: as above; conditions: 10 days, 0 = no effect, 100 = complete control
# Procedure, shortened: as §2
# [6] = test system: green foxtail (Setaria viridis); assay: as above; conditions: 10 days, 0 = no effect, 100 = complete control
# Procedure, shortened: as §2
# [7] = test system: barnyardgrass (Echinochloa crus-galli); assay: as above; conditions: 10 days, 0 = no effect, 100 = complete control
# Procedure, shortened: as §2
# [8] = test system: oat, wild (wild oat, Avena fatua); assay: as above; conditions: 10 days, 0 = no effect, 100 = complete control
# Procedure, shortened: as §2
# [9] = test system: ragweed (common ragweed, Ambrosia artemisiifolia); assay: as above; conditions: 10 days, 0 = no effect, 100 = complete control
# Procedure, shortened: as §2
# [10] = test system: wheat (Triticum aestivum); assay: as above; conditions: 10 days, 0 = no effect, 100 = complete control
# Procedure, shortened: as §2
# soybean (Glycine max) [11] = assay: as above; conditions: 10 days, 0 = no effect, 100 = complete control
# Procedure, shortened: as §2
# [12] = test system: palmer (palmer amaranth, palmer pigweed, Amaranthus palmeri); assay: as above; conditions: 10 days, 0 = no effect, 100 = complete control
# Procedure, shortened: as §2
# [13] = test system: ryegrass, Italian (italian ryegrass, Lolium multiflorum); assay: as above; conditions: 10 days, 0 = no effect, 100 = complete control
# Procedure, shortened: as §2
# kochia (Bassia scoparia) [14] = assay: as above; conditions: 10 days, 0 = no effect, 100 = complete control
# Procedure, shortened: as §2
# corn (Zea mays) [15] = assay: Test A postemergence application, visual injury rating 0-100; conditions: 10 days
# Source text: (§3) Seeds of plant species selected from barnyardgrass (Echinochloa crus-galli), blackgrass (Alopecurus myosuroides), corn (Zea mays), foxtail, giant (giant foxtail, Setaria faberi), green foxtail (Setaria viridis), goosegrass (Eleusine indica), kochia (Bassia scoparia), oat, wild (wild oat, Avena fatua), palmer (palmer amaranth, palmer pigweed, Amaranthus palmeri), ragweed (common ragweed, Ambrosia artemisiifolia), ryegrass, Italian (italian ryegrass, Lolium multiflorum), soybean (Glycine max) and wheat (Triticum aestivum) were planted into a blend of loam soil and sand and treated preemergence with a directed soil spray using test chemicals formulated in a non-phytotoxic solvent mixture which included a surfactant.
# (§4) At the same time, plants selected from these crops and weed species and also galium (catchweed bedstraw, Galium aparine) and horseweed (Erigeron canadensis) were planted in pots containing the same blend of loam soil and sand and treated with postemergence applications of test chemicals formulated in the same manner. Plants ranged in height from 2 to 10 cm and were in the one- to two-leaf stage for the postemergence treatment. Treated plants and untreated controls were maintained in a greenhouse for 10 days, after which time all treated plants were compared to untreated controls and visually evaluated for injury. Plant response ratings, summarized in Table A, are based on a 0 to 100 scale where 0 is no effect and 100 is complete control. A dash (-) response means no test result.
# [16] = test system: blackgrass (Alopecurus myosuroides); assay: as above; conditions: 10 days
# Source text: as §3, §4
# [17] = test system: green foxtail (Setaria viridis); assay: as above; conditions: 10 days
# Source text: as §3, §4
# [18] = test system: barnyardgrass (Echinochloa crus-galli); assay: as above; conditions: 10 days
# Source text: as §3, §4
# [19] = test system: oat, wild (wild oat, Avena fatua); assay: as above; conditions: 10 days
# Source text: as §3, §4
# [20] = test system: ragweed (common ragweed, Ambrosia artemisiifolia); assay: as above; conditions: 10 days
# Source text: as §3, §4
# [21] = test system: horseweed (Erigeron canadensis); assay: as above; conditions: 10 days
# Source text: as §3, §4
# [22] = test system: wheat (Triticum aestivum); assay: as above; conditions: 10 days
# Source text: as §3, §4
# soybean (Glycine max) [23] = assay: as above; conditions: 10 days
# Source text: as §3, §4
# [24] = test system: palmer (palmer amaranth, palmer pigweed, Amaranthus palmeri); assay: as above; conditions: 10 days
# Source text: as §3, §4
# [25] = test system: ryegrass, Italian (italian ryegrass, Lolium multiflorum); assay: as above; conditions: 10 days
# Source text: as §3, §4
# kochia (Bassia scoparia) [26] = assay: as above; conditions: 10 days
# Source text: as §3, §4
# [27] = 31 g ai/ha, postemergence, 0 = no effect, 100 = complete control
# [28] = Postemergence, 125 g ai/ha, 0 is no effect, 100 is complete control
smiles,measurement,setting,value
"CC1(C(=O)NC2CC=C(C(=O)O)C2)CN(c2cc(F)cc(F)c2)C(=O)O1 [Compound 38, (4S)-4-[[[3-(3,5-difluorophenyl)-5-methyl-2-oxo-5-oxazolidinyl]carbonyl]amino]-1-cyclopentene-1-carboxylate acid]","Plant response rating, Sedge, Umbrella (0 to 100 scale, 0 is no effect and 100 is complete control)",[1],95
same,"Plant response rating, Barnyardgrass (0 to 100 scale, 0 is no effect and 100 is complete control)",[2],55
same,"Plant response rating, Ducksalad (0 to 100 scale, 0 is no effect and 100 is complete control)",[3],55
same,"Plant response rating, Rice (0 to 100 scale, 0 is no effect and 100 is complete control)",rice (Oryza sativa),70
same,Corn plant response rating (0-100),corn (Zea mays) [4]; 31 g ai/ha,0
same,Corn plant response rating (0 to 100 scale),corn (Zea mays) [4]; 125 g ai/ha,90
same,Blackgrass plant response rating (0-100),[5]; 31 g ai/ha,0
same,Blackgrass plant response rating (0 to 100 scale),[5]; 125 g ai/ha,50
same,"Foxtail, Green plant response rating (0-100)",[6]; 31 g ai/ha,0
same,"Foxtail, Green plant response rating (0 to 100 scale)",[6]; 125 g ai/ha,20
same,Barnyardgrass plant response rating (0-100),[7]; 31 g ai/ha,0
same,Barnyardgrass plant response rating (0 to 100 scale),[7]; 125 g ai/ha,40
same,"Oat, Wild plant response rating (0-100)",[8]; 31 g ai/ha,0
same,"Oat, Wild plant response rating (0 to 100 scale)",[8]; 125 g ai/ha,60
same,Ragweed plant response rating (0-100),[9]; 31 g ai/ha,0
same,Ragweed plant response rating (0 to 100 scale),[9]; 125 g ai/ha,0
same,Wheat plant response rating (0-100),[10]; 31 g ai/ha,40
same,Wheat plant response rating (0 to 100 scale),[10]; 125 g ai/ha,90
same,Soybean plant response rating (0-100),soybean (Glycine max) [11]; 31 g ai/ha,10
same,Soybean plant response rating (0 to 100 scale),soybean (Glycine max) [11]; 125 g ai/ha,80
same,"Amaranth, Palmer plant response rating (0-100)",[12]; 31 g ai/ha,0
same,"Amaranth, Palmer plant response rating (0 to 100 scale)",[12]; 125 g ai/ha,70
same,"Ryegrass, Italian plant response rating (0-100)",[13]; 31 g ai/ha,0
same,"Ryegrass, Italian plant response rating (0 to 100 scale)",[13]; 125 g ai/ha,90
same,Kochia plant response rating (0-100),kochia (Bassia scoparia) [14]; 31 g ai/ha,0
same,Kochia plant response rating (0 to 100 scale),kochia (Bassia scoparia) [14]; 125 g ai/ha,20
same,Corn plant response rating (0-100),corn (Zea mays) [15]; [27],90
same,Corn plant response rating (0 to 100 scale),corn (Zea mays) [15]; [28],100
same,Blackgrass plant response rating (0-100),[16]; [27],40
same,Blackgrass plant response rating (0 to 100 scale),[16]; [28],90
same,"Foxtail, Green plant response rating (0-100)",[17]; [27],90
same,"Foxtail, Green plant response rating (0 to 100 scale)",[17]; [28],90
same,Barnyardgrass plant response rating (0-100),[18]; [27],90
same,Barnyardgrass plant response rating (0 to 100 scale),[18]; [28],100
same,"Oat, Wild plant response rating (0-100)",[19]; [27],90
same,"Oat, Wild plant response rating (0 to 100 scale)",[19]; [28],90
same,Ragweed plant response rating (0-100),[20]; [27],20
same,Ragweed plant response rating (0 to 100 scale),[20]; [28],50
same,Horseweed plant response rating (0-100),[21]; [27],30
same,Horseweed plant response rating (0 to 100 scale),[21]; [28],70
same,Wheat plant response rating (0-100),[22]; [27],90
same,Wheat plant response rating (0 to 100 scale),[22]; [28],90
same,Soybean plant response rating (0-100),soybean (Glycine max) [23]; [27],60
same,Soybean plant response rating (0 to 100 scale),soybean (Glycine max) [23]; [28],80
same,"Amaranth, Palmer plant response rating (0-100)",[24]; [27],40
same,"Amaranth, Palmer / Pigweed, Palmer plant response rating (0 to 100 scale)",[24]; [28],100
same,"Ryegrass, Italian plant response rating (0-100)",[25]; [27],70
same,"Ryegrass, Italian plant response rating (0 to 100 scale)",[25]; [28],90
same,Kochia plant response rating (0-100),kochia (Bassia scoparia) [26]; [27],80
same,Kochia plant response rating (0 to 100 scale),kochia (Bassia scoparia) [26]; [28],80
